From patent US20220296597A1, “USE OF A NEUTROPHIL ELASTASE INHIBITOR IN LUNG DISEASE” (pH Pharma Co., Ltd., priority 2019, published 2022)
Read-outs that look alike come from different tables or passages of the source.

How the values were obtained:
[1] = healthy subjects, cited from earlier work
[2] = Solubility of the drug substance; format: physicochemical
[3] = Example 2 Phase 1 single-ascending dose study in healthy subjects; format: in vivo, human
Source text: Following Screening, subjects received single doses of study drug and were monitored during an in-clinic period and an out-patient follow-up period. Subjects were confined to the study site for Study Days −2 through 7 to collect PK and safety assessments. Following discharge from the study site on Study Day 7, subjects returned to the study site on Study Days 14, 21, 28, and 35.

[4] = non-CF BE patients, 28 days, cited from earlier work
[5] = Hygroscopicity of the drug substance; format: physicochemical; details: normal storage conditions

solubility in acetone ([2]; acetone): soluble
solubility in ethanol ([2]; ethanol): very slightly soluble
solubility in water ([2]; water): practically insoluble
subjects with headache ([3]; 36 received Compound 1, single doses 1 to 40 mg): one
exposure (AUC and Cmax) with dose ([3]; single doses 1 to 40 mg): proportional increases
hygroscopicity [5]: not hygroscopic
SMILES: CC1=C(C#N)[C@@H](c2ccc(C#N)cc2S(C)(=O)=O)N(C)C(=O)N1c1cccc(C(F)(F)F)c1 [Compound 1, (4S)-4-[4-cyano-2-(methylsulfonyl)phenyl]-3,6-dimethyl-2-oxo-1-[3-(trifluoromethyl)phenyl]-1,2,3,4-tetrahydropyrimidine-5-carbonitrile]
study drug-induced laboratory or ECG abnormalities ([1]; Phase 1 studies): No safety signals
safety and tolerability ([1]; single and repeated doses up to 1 mg for up to 14 days): safe and well tolerated
serious adverse events ([1]; three Phase 1 studies): no serious AEs (SAEs) were reported
AE rate compared with placebo ([3]; single doses 1 to 40 mg): somewhat lower than that in the control (placebo) subjects
effects on laboratory safety evaluations (clinical chemistry and hematology) ([3]; single doses 1 to 40 mg): no clear effects
serious AEs ([3]; single doses 1 to 40 mg): no serious AEs
safety and tolerability ([4]; 1.0 mg oral IR tablet): generally safe and well tolerated
SAEs attributed to the drug ([4]; 1.0 mg oral): no SAEs were attributed by the investigator to the drug
study drug-induced laboratory parameter or ECG effects ([4]; 1.0 mg oral): No safety signals
